The text below walks through data of patent US20110206647A1, “Modulation of Angiogenesis” (ABT Holding Company, priority 2010, published 2011).

For test [1], the system named is human umbilical vein endothelial cell (HUVEC). As to the kind of experiment: in vitro HUVEC angiogenesis (tube formation) assay. It counts as cell-based. Conditions: for induction of angiogenesis by factor added to basal media: MultiStem basal media, IL-8 4000 pg/ml, CXCL5 150 pg/ml. The procedure:
Growth factor-reduced Matrigel (BD Bioscience, San Jose, Calif.) was thawed on ice at 4° C. overnight and used at a concentration of 6.0-6.5 mg/ml, diluted on ice using ice-cold 1×PBS. Four-hundred microliters of Matrigel was distributed into the inner wells of a 24-well tissue culture plate and allowed to solidify for 1 hour at 37° C. Addition of Matrigel was done on ice and outer wells of plate were filled with 1 ml of 1×PBS.
HUVECs were harvested according to the following protocol: Cells were washed with 1×PBS followed by a brief rinse with 0.25× trypsin-EDTA and then quenched using the 1×PBS (with residual serum) wash. Cells were resuspended in endothelial cell basal media (EBM) and counted. HUVECs were added to the CM, other experimental conditions and controls at a concentration of 55,000 cells/ml/well. Each sample and control was assayed in triplicate. Plates were incubated for 6 hours or 18 hours at 5% CO2 and 37° C. to allow for tube formation. Four fields per well were analyzed for a total of 12 fields. Pictures were taken at using 10× objective. Angiogenesis was scored by counting the number of tubes formed between cells. Results are expressed as average tubes formed per field +/−SEM.
To test whether MultiStem secretes factors which promote angiogenesis, an in vitro angiogenesis assay using conditioned media from MultiStem was utilized. MultiStem were plated under normal conditions for 24 hours. The cells were then transferred to serum-free conditions to generate conditioned media for four days. This media was then tested for angiogenic activity in an in vitro tube formation assay. […] HUVECs were plated in conditioned media, basal media or endothelial growth media for 18 hours. Angiogenesis was measured as the average number of tubes formed per field of view for each condition. In the absence of any additional factors, the presence of serum alone in basal media can induce angiogenesis. Therefore, serum-free media was used for all the experiments.

For test [2], the system named is MultiStem. The test can be described thus: RT-PCR analysis of pro-angiogenic gene expression in treated MultiStem. It counts as cell-based, human. The protocol:
FIG. 7—Treatment of MultiStem with Cytomix increases the expression of pro-angiogenic molecules in vitro. MultiStem was grown for three days and then treated with Cytomix (10 ng/mL TNF-α, IL-1β and IFNγ) for 24, 48, 72 hrs. The cells were subsequently collected for RT-PCR analysis for pro-angiogenic gene expression.
FIGS. 10A-C—Pre-treatment of MultiStem with prostaglandin F or latanoprost (prostaglandin F agonist) increases expression of the angiogenic factors by MultiStem in vitro. […] MultiStem was treated with a dose range of Latanoprost for 24, 48 or 72 hours. Gene expression of pro-angiogenic factors was then analyzed by RT-PCR. Gene expression of KITLG (A), HGF and VEGF (B), and Il-8 (C) were all increased.

The mark [3] stands for this setting: MultiStem treated 24, 48, 72 hrs.
[4] abbreviates: MultiStem treated 24, 48 or 72 hours.

`CC(C)OC(=O)CCC/C=C\C[C@@H]1[C@@H](CC[C@@H](O)CCc2ccccc2)[C@H](O)C[C@@H]1O` [latanoprost]: in test [1] (1 uM added to media after collection), the “angiogenesis, CM from untreated cells with agent added after collection vs CM alone” value is “equal levels”. In addition, the “tube formation, basal media with added agent” value in test [1] (1 uM in basal media, no cells) was “did no induce significant tube formation”. Further, the “HUVEC tube formation, conditioned media from treated MultiStem vs untreated” value in test [1] (MultiStem cultured three days with 1 uM, serum-free CM) is “increased modestly”. Also, in test [2] (setting [3]), the HGF gene expression entry was “increased” and the IL-8 gene expression result was “increased”. Moreover, the “VEGF (VEGF A) gene expression” value in test [2] (setting [4]) is on record as “increased”. Also, in test [2] (MultiStem treated 24, 48 or 72 hours, dose range), the KITLG gene expression result is “increased”.
“CXCL5: angiogenic cytokine added to MultiStem basal media (150 pg/ml)”: in test [1], the “induction of angiogenesis by factor added to basal media” value is recorded as “not sufficient to induce angiogenesis”.
For the compound “IL-8: interleukin 8 added to MultiStem basal media (4000 pg/ml)”, the “induction of angiogenesis by factor added to basal media” value in test [1] was “not sufficient to induce angiogenesis”.
As for prostaglandin F, the “VEGF (VEGF A) gene expression” value in test [2] (setting [4]) was “increased”.
